Data: article PMC11134387, “Cancer-Stem-Cell Phenotype-Guided Discovery of a Microbiota-Inspired Synthetic Compound Targeting NPM1 for Leukemia” (JACS Au, 2024)

Legend:
Format in all cases: cell-based
[1] = tested on: primary HSCs from AML patients; experiment: CD34+ liquid HSC short-term culture, AML patients; details: Homo sapiens
Procedure: (§1) Considering the inhibitory capacity of UCM-13369 on AML cell lines (shown in Figure 3A), the therapeutic potential was assessed in primary CD34+ cells from AML patients. Two ex vivo models were used from AML patients and healthy donors: CD34+ liquid HSC (hematopoietic stem cell) culture as a short-term model and CFU-E (colony-forming unit–erythroid) as a midterm model.
(§2) The test compound was diluted in PBS. […]
Primary cells. 1x10^6/mL total mononuclear bone marrow cells (as source of CD34+ HSCs) of healthy donors and AML patients were used. They were cultured using Stem SpanTM supplement with pencillin/streptomycin (500 U/ml), TPO (10 µg/mL), SCF (10 µg/mL), FLT3 (10 µg/mL), IL-6 (10 µg/mL) and IL-3 (10 µg/mL). After 24 h fresh medium was added. After 72 h in maintenance cells were ready to start the assays. All cells wer e maintained at 37 °C in a humidified incubator in an atmosphere of 5% CO2. […]

[2] = tested on: primary HSCs from patients with NPM1 C+ AML; experiment: CD34+ liquid HSC short-term culture, NPM1 C+ AML patients; details: Homo sapiens, n = 4
Procedure: as §1, §2
(§3) quantitative real-time PCR (qPCR), or were sorted using a FACS BD INFL UX cell sorter (BD Biosciences, Franklin Lakes, NJ, USA). All cells were maintained at 37 °C in a humidified incubator in an atmosphere of 5% CO2, and passaged every 2–3 days. […]
(§4) Primary cells. […] After 72 h in maintenance cells were ready to start the assays. […]
(§5) Colonospheres, mamospheres and colony formation unit assays. […] After 10 days (mamospheres and colonospheres) and 14 days (CFU-E) we quantified t he number of colonies/spheres and number of cell s (CFU-E) by […]
(§6) RNA and DNA extraction and quantitative PCR (qPCR). […] Gene expression was studied from the extracted RNA, processed into cDNA to quantify the expression of NPM1 and c-MYC. […]
(§7) The relative amount of targets was determined by the comparative Ct method.
Western blot. […] Lysates wer e cl ear ed by centrifugation (14,000g, 4 °C, 30 min), protein concentration determined by Bradford

c-Myc = experiment: qPCR and Western blot of c-Myc in OCI-AML3 cells
From the text: We next studied the impact of UCM-13369 in the genes and/or expression levels of NPM1 and NPM1 C+ pathway components (Figure 4A), including the positive regulation of c-Myc[34] and the negative regulation of FBXW7 and the pro-apoptotic CASP8.[35] […] The inhibition of NPM1 was also observed in MOLM13 cells expressing WT NPM1 (Figure S1B). […]
as §3, §4, §5, §6, §7
Western blot. […] Lysates wer e cl ear ed by centrifugation (14,000g, 4 °C, 30 min), protein concentration determined by Bradford […]
Proteomic analysis. […] Follows the image of a Venn diagram showing the number of proteins detected in each of the pop ulations and the proteins that converg e […]

SMILES: COc1ccc(C2Cc3[nH]c4ccccc4c3C(CCNCC3CC3)C2N)cc1 (stereo not drawn) [4b, 4-{2-[(Cyclopropylmethyl)amino]ethyl}-2-(4-methoxyphenyl)-2,3,4,9-tetrahydro-1H-carbazol-3-amine]
- IC50 [1]: 1.88 µM
- IC50 [2]: 1.73 µM
- c-Myc levels (in words) (c-Myc): reduced levels
